pIC50: −log10 of the molar value.
Target: PRMT5/MEP50 protein complex (Homo sapiens (Human), UniProt O14744)
Assay: PRMT5 biochemical assay (3H-SAM methylation of H4(1-21) peptide, filter plate scintillation counting)
Details: PRMT5 enzyme inhibition; 10 nM PRMT5/MEP50 complex, 200 nM H4(1-21) peptide, 1 uM SAM, 25 minute incubation at room temperature
Method: Following dilution, 1 ul was added to an empty 96-well microtiter plate. PRMT5/MEP50 protein complex was combined with H4(1-21) peptide ([…]) in PRMT5 assay buffer (50 mM Tris pH 8.5, 50 mM NaCl, 5 mM MgCl2, 1 mM EDTA, 1 mM TCEP) and 44 ul was added to the microtiter plate containing compound. S-Adenosyl-L-methionine (SAM) was prepared by combining ^3H labelled SAM with unlabelled SAM in PRMT5 assay buffer such that the final SAM concentration was 10 uM and the specific activity was 0.2 uCi/ul. The reaction was initiated by adding 5 ul of SAM stock to the microtiter plate. The final reaction conditions were 10 nM PRMT5/MEP50 complex, 200 nM peptide and 1 uM SAM. Following a 25 minute incubation at room temperature, the reaction was stopped with the addition of 100 uL of 20% TCA. The 3H-peptide product was captured using a 96-well filter plate (MSIPN4B, Millipore) and washed 5 times with PBS buffer. Scintillation fluid (100 ul) was added to the dried filter plate and counted in a liquid scintillation counter. IC50 values were determined by fitting the data to the standard 4-parameter dose response equation using Pfizer proprietary software.
In the final construct PRMT5 ORF was under control of polyhedrin promoter (polH) while MEP50 ORF was under control of p10 promoter.
Viruses were generated using standard Bac-to-Bac viral generation protocols (Life Technologies) and amplified to high-titer passage two (P2) stocks. Protein over expression was conducted in exponentially growing Sf21 cells infected at 2×106 with P2 viral stock at MOI=1 of PRMT5-Mep50 dual construct virus and Mep50 construct virus at 1:1 ratio. The co-expression protocol was used to supplement additional Mep50 for FlagPRMT5-Mep50 heterodimer formation. Cells were harvested at 72 h post infection by centrifugation and frozen pellet was stored at −80° C.
FlagPRMT5-Mep50 complex was purified from cell lysate using Flag affinity chromatography. Cell were lyzed in 50 mM Tris 7.5, 200 mM NaCl, 10% glycerol, 0.25 mM TCEP supplemented with EDTA-free protease inhibitor cocktail (Roche). 1.5 ml of lysis buffer was added per 1 g of frozen pellet. The clarified lysate was obtained by centrifugation of cell lysate at 10,000 g for 1 h at 4 C. 5 ml of Anti-FLAG M2 Agarose (Sigma) […] was added to the clarified lysate to isolate FlagPRMT5-Mep50. Following batch binding for 3 h at 4 C, Flag resin bound to FlagPRMT5-Mep50 washed with 20 column volumes (CV) of 50 mM Tris 7.5, 200 mM NaCl, 10% glycerol, 0.25 mM TCEP followed by elution of FlagPRMT5-Mep50 complex using 3 CV of 50 mM Tris 7.5, 200 mM NaCl, 10% glycerol, 0.25 mM TCEP supplemented with 200 ug/ml of FLAG Peptide ([…]). […] Peak fractions containing FlagPRMT5-Mep50 complex were concentrated to 1.6 mg/ml, flash frozen in small aliquots using liquid nitrogen and stored at −80° C.

PRMT5/MEP50 protein complex, sequence (O14744 other isoform, or with tags, fused parts or gaps): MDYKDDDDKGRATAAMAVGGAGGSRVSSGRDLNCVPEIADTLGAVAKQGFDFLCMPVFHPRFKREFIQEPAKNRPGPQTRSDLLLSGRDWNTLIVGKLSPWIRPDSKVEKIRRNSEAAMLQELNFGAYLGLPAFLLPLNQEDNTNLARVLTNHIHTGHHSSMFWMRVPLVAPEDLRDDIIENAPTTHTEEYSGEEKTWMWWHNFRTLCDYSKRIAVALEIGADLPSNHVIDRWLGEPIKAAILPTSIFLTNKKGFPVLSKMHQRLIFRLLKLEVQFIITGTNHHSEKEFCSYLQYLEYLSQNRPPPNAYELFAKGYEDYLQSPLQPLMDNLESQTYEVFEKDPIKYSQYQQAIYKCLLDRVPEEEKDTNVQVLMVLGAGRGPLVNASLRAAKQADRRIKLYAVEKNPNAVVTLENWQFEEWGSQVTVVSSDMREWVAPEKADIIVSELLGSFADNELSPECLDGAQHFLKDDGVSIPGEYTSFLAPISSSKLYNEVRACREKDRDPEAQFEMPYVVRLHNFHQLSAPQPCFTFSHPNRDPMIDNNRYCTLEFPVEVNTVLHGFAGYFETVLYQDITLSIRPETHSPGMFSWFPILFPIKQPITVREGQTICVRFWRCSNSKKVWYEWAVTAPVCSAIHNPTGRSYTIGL
PRMT5/MEP50 protein complex, sequence (Q9BQA1 whole entry partner): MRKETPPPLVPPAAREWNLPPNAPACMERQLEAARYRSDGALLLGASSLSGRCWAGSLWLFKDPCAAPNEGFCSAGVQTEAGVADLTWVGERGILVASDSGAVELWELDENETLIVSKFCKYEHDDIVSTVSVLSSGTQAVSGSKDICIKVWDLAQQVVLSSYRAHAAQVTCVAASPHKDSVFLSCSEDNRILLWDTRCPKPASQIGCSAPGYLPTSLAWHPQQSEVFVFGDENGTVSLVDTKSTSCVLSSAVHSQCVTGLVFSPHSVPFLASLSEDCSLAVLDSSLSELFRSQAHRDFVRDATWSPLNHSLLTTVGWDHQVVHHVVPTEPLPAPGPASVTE

| Compound | pIC50 |
| --- | --- |
| Cc1ncnc2c1ccn2[C@@H]1O[C@H]([C@@H](F)c2ccc(F)c(F)c2)[C@@H](O)[C@H]1O [Example 93, (2S,3S,4R,5R)-2-((S)-(3,4-difluorophenyl)fluoromethyl)-5-(4-methyl-7H-pyrrolo[2,3-d]pyrimidin-7-yl)tetrahydrofuran-3,4-diol] | 6.52 |
| Cc1ncnc2c1ccn2[C@@H]1O[C@H](C(O)CS(=O)(=O)c2ccccc2)[C@@H](O)[C@H]1O (stereo in doubt) [Example 24, (2S,3S,4R,5R)-2-((R)-1-hydroxy-2-(phenylsulfonyl)ethyl)-5-(4-methyl-7H-pyrrolo[2,3-d]pyrimidin-7-yl)tetrahydrofuran-3,4-diol] | 4.51 |
| CCOCc1cc([C@@H]2O[C@@H](n3ccc4c(C)ncnc43)[C@H](O)[C@@H]2O)[nH]n1 [Example 78, (2S,3S,4R,5R)-2-(3-(ethoxymethyl)-1H-pyrazol-5-yl)-5-(4-methyl-7H-pyrrolo[2,3-d]pyrimidin-7-yl)tetrahydrofuran-3,4-diol] | 4.29 |
| Cc1ncnc2c1ccn2[C@@H]1O[C@@H](C(C)(C)O)[C@@H](O)[C@H]1O [Example 90, (2R,3S,4R,5R)-2-(2-hydroxypropan-2-yl)-5-(4-methyl-7H-pyrrolo[2,3-d]pyrimidin-7-yl)tetrahydrofuran-3,4-diol] | 5.49 |
| Cc1ncnc2c1ccn2[C@@H]1O[C@H]([C@@H](O)C2CC2)[C@@H](O)[C@H]1O [Example 47, (2R,3S,4R,5R)-2-((S)-cyclopropyl(hydroxy)methyl)-5-(4-methyl-7H-pyrrolo[2,3-d]pyrimidin-7-yl)tetrahydrofuran-3,4-diol] | 4.81 |
| Cc1ncnc2c1ccn2[C@@H]1O[C@H]([C@H](O)C2CCC2)[C@@H](O)[C@H]1O [Example 52, (2R,3S,4R,5R)-2-((R)-cyclobutyl(hydroxy)methyl)-5-(4-methyl-7H-pyrrolo[2,3-d]pyrimidin-7-yl)tetrahydrofuran-3,4-diol] | 5.90 |
| O[C@@H]1[C@H](O)[C@@H]([C@H](O)c2ccc(F)c(F)c2)O[C@H]1n1ccc2c(CF)ncnc21 [Example 107, (2R,3S,4R,5R)-2-((R)-(3,4-difluorophenyl)(hydroxy)methyl)-5-(4-(fluoromethyl)-7H-pyrrolo[2,3-d]pyrimidin-7-yl)tetrahydrofuran-3,4-diol] | 8.15 |
| Cc1nc(N)nc2c1ccn2[C@@H]1O[C@H]([C@@H](O)c2ccc(F)cc2)[C@@H](O)[C@H]1O [Example 65, (2R,3R,4S,5R)-2-(2-amino-4-methyl-7H-pyrrolo[2,3-d]pyrimidin-7-yl)-5-((S)-(4-fluorophenyl)(hydroxy)methyl)tetrahydrofuran-3,4-diol] | 6.31 |
| Cc1ncnc2c1ccn2[C@@H]1O[C@H]([C@@H](O)CCc2ccccc2)[C@@H](O)[C@H]1O [Example 31, (2R,3S,4R,5R)-2-((S)-1-hydroxy-3-phenylpropyl)-5-(4-methyl-7H-pyrrolo[2,3-d]pyrimidin-7-yl)tetrahydrofuran-3,4-diol] | 4.21 |
| Cc1ncnc2c1ccn2[C@@H]1O[C@H]([C@@H](N)c2ccc(F)c(F)c2)[C@@H](O)[C@H]1O [Example 95, (2R,3S,4R,5R)-2-((S)-amino(3,4-difluorophenyl)methyl)-5-(4-methyl-7H-pyrrolo[2,3-d]pyrimidin-7-yl)tetrahydrofuran-3,4-diol] | 6.82 |
| Cc1ncnc2c1ccn2[C@@H]1O[C@@H]([C@@H](O)c2ccc(F)cc2)[C@@H](O)[C@H]1O [Example 75, (2S,3S,4R,5R)-2-((S)-(4-fluorophenyl)(hydroxy)methyl)-5-(4-methyl-7H-pyrrolo[2,3-d]pyrimidin-7-yl)tetrahydrofuran-3,4-diol] | 4.66 |
| Cc1nc(N)nc2c1ccn2[C@@H]1O[C@@H](c2ccccc2)[C@@H](O)[C@H]1O [Example 68, (2R,3R,4S,5S)-2-(2-amino-4-methyl-7H-pyrrolo[2,3-d]pyrimidin-7-yl)-5-phenyltetrahydrofuran-3,4-diol] | 5.26 |
| Cc1ncnc2c1ccn2[C@@H]1O[C@H]([C@H](O)c2cccc(S(C)(=O)=O)c2)[C@@H](O)[C@H]1O [Example 19, (2R,3S,4R,5R)-2-((R)-hydroxy(3-(methylsulfonyl)phenyl)methyl)-5-(4-methyl-7H-pyrrolo[2,3-d]pyrimidin-7-yl)tetrahydrofuran-3,4-diol] | 7.19 |
| CC[C@H](O)[C@H]1O[C@@H](n2cnc3c(N)ncnc32)[C@H](O)[C@@H]1O [Example 4, (2R,3R,4S,5R)-2-(6-amino-9H-purin-9-yl)-5-((S)-1-hydroxypropyl)tetrahydrofuran-3,4-diol] | 4.36 |
| Nc1ncnc2c([C@@H]3O[C@H]([C@H](O)c4ccc(F)cc4)[C@@H](O)[C@H]3O)scc12 [Example 102, (2R,3R,4S,5R)-2-(4-aminothieno[3,4-d]pyrimidin-7-yl)-5-((R)-(4-fluorophenyl)(hydroxy)methyl)tetrahydrofuran-3,4-diol] | 6.52 |
| Nc1ncnc2c([C@@H]3O[C@H]([C@H](O)c4ccc(F)cc4)[C@@H](O)[C@H]3O)coc12 [Example 80, (2S,3R,4S,5R)-2-(4-aminofuro[3,2-d]pyrimidin-7-yl)-5-((R)-(4-fluorophenyl)(hydroxy)methyl)tetrahydrofuran-3,4-diol] | 7.49 |
| Cc1ncnc2c1ccn2[C@@H]1O[C@H]([C@@H](O)c2cccc(F)c2)[C@@H](O)[C@H]1O [Example 35, (2R,3S,4R,5R)-2-((S)-(3-fluorophenyl)(hydroxy)methyl)-5-(4-methyl-7H-pyrrolo[2,3-d]pyrimidin-7-yl)tetrahydrofuran-3,4-diol] | 5.76 |
| Cc1ncnc2c1ccn2[C@@H]1O[C@H]([C@H](O)c2ccc3c(c2)ncn3C(F)F)[C@@H](O)[C@H]1O [Example 23, (2R,3S,4R,5R)-2-((R)-(1-(difluoromethyl)-1H-benzo[d]imidazol-5-yl)(hydroxy)methyl)-5-(4-methyl-7H-pyrrolo[2,3-d]pyrimidin-7-yl)tetrahydrofuran-3,4-diol] | 6.10 |
| Nc1ncnc2c1c(F)cn2[C@@H]1O[C@@H](c2ccccc2)[C@@H](O)[C@H]1O [Example 67, (2R,3R,4S,5S)-2-(4-amino-5-fluoro-7H-pyrrolo[2,3-d]pyrimidin-7-yl)-5-phenyltetrahydrofuran-3,4-diol] | 5.81 |
| Cc1ncnc2c1ccn2[C@@H]1O[C@H]([C@H](O)C(F)(F)F)[C@@H](O)[C@H]1O [Example 56, (2R,3R,4S,5S)-2-(4-methyl-7H-pyrrolo[2,3-d]pyrimidin-7-yl)-5-((S)-2,2,2-trifluoro-1-hydroxyethyl)tetrahydrofuran-3,4-diol] | 7.96 |
| Cc1ncnc2c1ccn2[C@@H]1O[C@H]([C@@H](O)C(C)C)[C@@H](O)[C@H]1O [Example 49, (2R,3S,4R,5R)-2-((S)-1-hydroxy-2-methylpropyl)-5-(4-methyl-7H-pyrrolo[2,3-d]pyrimidin-7-yl)tetrahydrofuran-3,4-diol] | 4.43 |
| Cc1ncnc2c1ccn2[C@@H]1O[C@@H](c2ccn[nH]2)[C@@H](O)[C@H]1O [Example 72, (2R,3R,4S,5S)-2-(4-methyl-7H-pyrrolo[2,3-d]pyrimidin-7-yl)-5-(1H-pyrazol-5-yl)tetrahydrofuran-3,4-diol] | 5.69 |
| CN[C@H](c1ccc(F)c(F)c1)[C@H]1O[C@@H](n2ccc3c(C)ncnc32)[C@H](O)[C@@H]1O [Example 109, (2R,3S,4R,5R)-2-((R)-(3,4-difluorophenyl)(methylamino)methyl)-5-(4-methyl-7H-pyrrolo[2,3-d]pyrimidin-7-yl)tetrahydrofuran-3,4-diol] | 5.32 |
| Cc1ncnc2c1ccn2[C@@H]1O[C@H]([C@H](O)c2cccc(=O)[nH]2)[C@@H](O)[C@H]1O [Example 113, 6-((R)-((2R,3S,4R,5R)-3,4-dihydroxy-5-(4-methyl-7H-pyrrolo[2,3-d]pyrimidin-7-yl)tetrahydrofuran-2-yl)(hydroxy)methyl)pyridin-2(1H)-one] | 7.06 |
| Cc1ncnc2c1ccn2[C@@H]1O[C@H]([C@H](O)C2CCCC2)[C@@H](O)[C@H]1O [Example 42, (2R,3S,4R,5R)-2-((R)-cyclopentyl(hydroxy)methyl)-5-(4-methyl-7H-pyrrolo[2,3-d]pyrimidin-7-yl)tetrahydrofuran-3,4-diol] | 6.18 |

From patent publication US10428104B2, “Substituted nucleoside derivatives useful as anticancer agents” (Pfizer Inc., priority 2015, dated 2019)
